In paper PMC10025480 (Frontiers in Pharmacology, 2023):
Like-named read-outs stand apart in the source and are kept apart here.

Experiments:
hTMEM16Aabc [1] = biological target: T1, hTMEM16Aabc (Homo sapiens, UniProt Q5XXA6, DEL476-501); test: Short-circuit current (ISC), FRT-TMEM16Aabc monolayers in Ussing chambers; assay type: cell-based; conditions: for UTP-stimulated integrated ISC response (AUC) / UTP-stimulated peak increase in ISC: 5 min pre-treatment, apical, UTP 10 µM, concentration-dependent
T1 construct: expressed in transfected cells
T1 sequence (Q5XXA6 with tags, fused parts or gaps isoform Q5XXA6-5 DEL539-564): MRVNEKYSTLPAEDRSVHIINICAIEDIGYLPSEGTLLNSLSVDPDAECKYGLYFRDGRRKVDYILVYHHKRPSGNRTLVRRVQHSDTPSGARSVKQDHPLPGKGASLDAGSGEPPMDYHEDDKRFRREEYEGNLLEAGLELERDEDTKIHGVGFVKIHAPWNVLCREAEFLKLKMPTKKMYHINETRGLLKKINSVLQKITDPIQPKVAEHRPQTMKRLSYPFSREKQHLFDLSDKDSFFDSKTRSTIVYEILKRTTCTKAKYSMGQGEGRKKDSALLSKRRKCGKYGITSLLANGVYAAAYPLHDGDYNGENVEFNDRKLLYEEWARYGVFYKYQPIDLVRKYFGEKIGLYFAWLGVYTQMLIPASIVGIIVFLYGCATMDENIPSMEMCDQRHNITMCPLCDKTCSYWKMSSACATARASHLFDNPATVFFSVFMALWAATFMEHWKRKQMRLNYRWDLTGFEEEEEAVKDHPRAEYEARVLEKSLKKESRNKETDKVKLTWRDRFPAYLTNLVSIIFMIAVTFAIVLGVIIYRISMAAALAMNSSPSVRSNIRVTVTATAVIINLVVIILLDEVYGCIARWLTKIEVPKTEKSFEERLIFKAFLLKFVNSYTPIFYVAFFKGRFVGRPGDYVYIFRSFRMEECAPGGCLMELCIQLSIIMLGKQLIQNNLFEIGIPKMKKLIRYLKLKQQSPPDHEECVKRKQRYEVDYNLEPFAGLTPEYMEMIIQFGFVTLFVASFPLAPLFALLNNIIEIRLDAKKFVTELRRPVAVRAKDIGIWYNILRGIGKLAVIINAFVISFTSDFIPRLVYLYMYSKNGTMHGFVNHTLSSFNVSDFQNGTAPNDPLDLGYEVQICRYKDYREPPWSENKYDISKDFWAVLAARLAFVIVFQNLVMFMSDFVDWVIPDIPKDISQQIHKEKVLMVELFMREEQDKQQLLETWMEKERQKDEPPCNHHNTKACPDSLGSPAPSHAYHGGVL
Experimental: FRT-hTMEM16Aabc cells were mounted in Ussing chambers in asymmetrical Ringers solutions. The basolateral Ringers contained (in mM): 120 NaCl, 25 NaHCO3, 3.3 KH2PO4, 0.8 K2HPO4, 1.2 CaCl2, 1.2 MgCl2, and 10 glucose. In the apical Ringers solution, NaCl was reduced to 80 mM and 40 mM sodium gluconate was included to establish a Cl^− gradient. The solution osmolarity was between 280 and 300 mosmol kg H2O^−1 and was continuously gassed (5% CO2 in O2; pH 7.4) and maintained at 37°C. Cells were voltage clamped to 0 mV (model EVC4000; WPI) and the short-circuit current (ISC) was measured. Data were recorded using a PowerLab workstation and LabChart software (ADInstruments, Abingdon, Oxon, United Kingdom). TMEM16A blockers were added to the apical side of the epithelium for 5 min before the addition of UTP, that was used to stimulate a TMEM16A-mediated chloride secretory responses.

FRT-TMEM16Aabc cells = test: Intracellular Ca2+ measurement (Calcium6), FRT-TMEM16Aabc cells; assay type: cell-based; conditions: 10 min pre-treatment
Experimental: CF-HBE cultured at air-liquid interface for 14–21 days were pre-treated with IL-13 (10 ng/mL; 48 h). CF-HBE were then loaded with the Ca^2+-sensitive fluorescent reporter dye, Calcium6 for 120 min at 37°C in Hanks balanced salt solution (HBSS) buffered with 20 mM HEPES (pH 7.4). […] The direct effects of apically administered TMEM16A blockers on [Ca^2+]i as well as effects on the subsequent responses to UTP were measured using a PHERAstar plate reader (BMG Lab Tech, United Kingdom). Equivalent measurements were performed in FRT-TMEM16Aabc cells that had been cultured in 96 well, clear bottom plastic plates and loaded with Calcium6 using the same protocol.

CF-HBE cells = test: Short-circuit current (ISC), IL-13 pre-treated CF-HBE; assay type: cell-based, human
Experimental: HBE cultured at air-liquid interface (ALI) for 14–21 days were mounted in Ussing chambers in symmetrical Ringers solution containing (in mM): 120 NaCl, 25 NaHCO3, 3.3 KH2PO4, 0.8 K2HPO4, 1.2 CaCl2, 1.2 MgCl2, and 10 glucose, and voltage clamped as described above. In some studies, HBE were pre-treated with IL-13 (10 ng/mL; Peprotech, United Kingdom) for 48 h to increase TMEM16A expression levels ([Caputo et al., 2008]). Amiloride (10 μM; apical) was used to block the spontaneous, ENaC-mediated current, whilst UTP (10 μM; apical) and forskolin (10 μM; apical and basolateral) were added to the bath solutions to activate Ca^2+ and cAMP-dependent anion secretory responses, respectively. Inh172 (30 μM; apical and basolateral) was also used to inhibit CFTR function. The TMEM16A blockers were added to the apical side of the Ussing chambers to evaluate effects on each of these currents.

hTMEM16Aabc [2] = biological target: T1, hTMEM16Aabc; test: Whole-cell patch clamp (QPatch), FRT-hTMEM16Aabc cells; assay type: cell-based; conditions: for IC50: [Ca2+]i clamped at 415 nM
Experimental: Current rectification ratios were calculated by dividing the magnitude of the outward current at +90 mV by the magnitude of the inward current at −90 mV.

HBE cells = test: Goblet cell formation (MUC5AC+ and acetylated α-tubulin+ stained area) in HBE; assay type: cell-based, human; conditions: for acetylated α-tubulin (ciliated) stained area / MUC5AC+ stained area (goblet cells): 96 h; for MUC5AC+ stained area (goblet cells): IL-13 naïve and IL-13 treated cultures
Experimental: HBE cultured at air-liquid interface for 14–21 days were treated with TMEM16A blockers ± IL-13 (10 ng/mL; basolateral) for 96 h to establish any effects on goblet cell numbers. At 48h, LDH levels in the media were measured according to the manufacturer’s instructions (Roche Cytotoxicity Detection Kit #11644793001), and blockers, IL-13 and media were refreshed. At 96 h, wells were fixed in 4% formaldehyde and were stained with antibodies to MUC5AC (45M1; Thermo Fisher, United Kingdom) and acetylated α-tubulin (6-11B-1; Sigma, United Kingdom) as previously described ([Danahay et al., 2015]; [Danahay et al., 2020b]) with secondary antibodies to enable fluorescence detection of both proteins (Alexa Fluor; Thermo Fisher, United Kingdom). The MUC5AC^+ stained area was visualised using a Zeiss Axiovert epifluorescence microscope with a motorised stage that was used to image the same 9 regions of interest on each insert. ImageJ was used to quantify the MUC5AC^+ and stained area per insert which was normalised to the vehicle control group. The process was repeated for the acetylated α-tubulin^+ stained area.

[3] = after amiloride, 5 min pre-treatment

Row | effect on baseline ISC prior to UTP (hTMEM16Aabc [1]) | UTP-stimulated integrated ISC response (AUC) (hTMEM16Aabc [1]) | UTP-stimulated peak increase in ISC (hTMEM16Aabc [1]) | IC50 (hTMEM16Aabc [2]; IC50 (printed in Figure 1, concentration-response curves), hTMEM16Aabc currents in FRT cells) [µM] | IC50 (hTMEM16Aabc [2]; IC50, inhibition of TMEM16Aabc currents, assessed at +90 mV, FRT cells) [µM] | IC50 (hTMEM16Aabc [2]; at −90 mV, FRT cells, read-out: IC50, inhibition of TMEM16Aabc currents) [µM] | inhibition at 30 µM (hTMEM16Aabc [2]; highest concentration tested, 30 µM, [Ca2+]i 415 nM, read-out: inhibition of TMEM16Aabc current) [%] | transient increase in ISC on addition (hTMEM16Aabc [1]; 10 µM, vehicle 0.0 ± 0.1) [µAcm^-2] | subsequent attenuation of the baseline current (hTMEM16Aabc [1]; 10 µM, vehicle −0.3 ± 0.1) [µAcm^-2] | current reversal potential (hTMEM16Aabc [2]; 30 µM, vehicle −12.3 ± 2.0 mV) [mV] | air-liquid interface integrity (HBE cells; by 48 h after initiating treatment, media on mucosal surface) | Structure (SMILES) | UTP-stimulated increase in [Ca2+]i (FRT-TMEM16Aabc cells) | direct effect on amiloride-insensitive baseline ISC (CF-HBE cells) | UTP-stimulated ISC AUC (CF-HBE cells; [3]) | UTP-stimulated peak increase in ISC (CF-HBE cells; [3]) | acetylated α-tubulin (ciliated) stained area (HBE cells) | MUC5AC+ stained area (goblet cells) (HBE cells) | immediate, transient increase in ISC (CF-HBE cells; 10 µM, vehicle 0.5 ± 0.2) [µAcm^-2] | change to lower baseline ISC than before compound addition (CF-HBE cells; 10 µM, vehicle −0.3 ± 0.1) [µAcm^-2] | effect on TMEM16Aabc currents (hTMEM16Aabc [2]; bell-shaped response, [Ca2+]i 415 nM)
1 | without effect | attenuated | attenuated | 3.05 ± 0.586 | 3 ± 0.6 | 1.3 ± 0.3 | 96 |  |  |  |  | CCc1oc2ccccc2c1C(=O)c1cc(Br)c(O)c(Br)c1 [benzbromarone] | significantly attenuated | Neither Ani9 nor benzbromarone had any direct effect | attenuated | attenuated | significantly attenuated | significantly attenuated |  |  | 
2 |  | attenuated | attenuated |  |  |  |  | 4.4 ± 0.3 | −6.7 ± 0.7 | −29.8 ± 1.3 | compromised | O=C(Nc1ccc([N+](=O)[O-])cc1Cl)c1cc(Cl)ccc1O [niclosamide] | significantly attenuated |  |  | attenuated | significantly attenuated | significantly attenuated | 6.8 ± 1.0 | −0.9 ± 0.2 | potentiation of currents at concentrations up to 1.1 µM
